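Cells were grown in 96-well plates and exposed to each compound for 48 hours at five concentrations; endpoints were interpolated linearly between bracketing concentrations, or set to the highest concentration if not reached. GI50 is the concentration that inhibits growth by half. TGI: total growth inhibition.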
How the values were obtained:
Test in all cases: NCI anticancer screen, dose series, 48 h
MOLT-4 leukemia = tested on: MOLT-4 leukemia
BT-549 breast = tested on: BT-549 breast
DU-145 prostate = tested on: DU-145 prostate
ACHN renal = tested on: ACHN renal
SK-MEL-2 melanoma = tested on: SK-MEL-2 melanoma
NCI-H23 lung = tested on: NCI-H23 lung
SK-MEL-5 melanoma = tested on: SK-MEL-5 melanoma
NCI/ADR-RES ovarian = tested on: NCI/ADR-RES ovarian
MCF7 breast = tested on: MCF7 breast
NCI-H460 lung = tested on: NCI-H460 lung

Row | SMILES | TGI (MOLT-4 leukemia) [µM] | TGI (BT-549 breast) [µM] | TGI (DU-145 prostate) [µM] | TGI (ACHN renal) [µM] | TGI (SK-MEL-2 melanoma) [µM] | TGI (NCI-H23 lung) [µM] | TGI (SK-MEL-5 melanoma) [µM] | TGI (NCI/ADR-RES ovarian) [µM] | TGI (MCF7 breast) [µM] | TGI (NCI-H460 lung) [µM] | GI50 (MOLT-4 leukemia) [µM] | GI50 (BT-549 breast) [µM] | GI50 (DU-145 prostate) [µM] | GI50 (ACHN renal) [µM] | GI50 (SK-MEL-2 melanoma) [µM] | GI50 (NCI-H23 lung) [µM] | GI50 (SK-MEL-5 melanoma) [µM] | GI50 (NCI/ADR-RES ovarian) [µM] | GI50 (MCF7 breast) [µM] | GI50 (NCI-H460 lung) [µM]
1 | COc1ccc(-c2cc(-c3ccc(Nc4ccnc5cc(C(F)(F)F)ccc45)cc3)nc(N)c2C#N)c2ccccc12 | > 100 | > 100 | > 100 | > 100 | > 100 | > 100 | > 100 | > 100 | > 100 | > 100 |  |  |  |  |  |  |  |  |  | 
2 | Cc1cc(N(CCCl)CCCl)ccc1/C=N\NC(=O)c1cccnc1 | 39.2 | 61.6 | 99 | > 100 | 59 | > 100 | 39.1 | 48.7 | > 100 | 23.3 | 8.19 | 19.4 | 15.1 | 10.7 | 27.3 | 18.4 | 15.7 | 13.7 | 16.8 | 0.685
3 | CO[C@@H](c1ccccc1)[C@H](O)[C@@](O)(c1ccccc1)P(=O)(OC)OC | > 100 | > 100 | > 100 | > 100 | > 100 | > 100 | > 100 | > 100 | > 100 | > 100 |  |  |  |  |  |  |  |  |  | 
4 | COC(=O)C1CCC(=S)N1C(C)=O (stereo not given) | > 100 | > 100 | > 100 | > 100 | > 100 | > 100 | > 100 | > 100 | > 100 | > 100 |  |  |  |  |  |  |  |  |  | 
5 | Cc1nnc(N)s/c1=N/O | > 100 | > 100 | > 100 | > 100 | > 100 | > 100 | > 100 | > 100 | > 100 | > 100 |  |  |  |  |  |  |  |  |  | 
6 | CC(=O)OC/C=C/Cn1nc(Br)c(=O)[nH]c1=O | > 100 | > 100 | > 100 | > 100 | > 100 | > 100 | > 100 | > 100 | > 100 | > 100 |  |  |  |  |  |  |  |  |  | 
7 | CCN(CC)CCCNc1nnc(C)c2[nH]c3ccccc3c12 | > 100 | 68 | 59.9 | 59.9 | 33.3 | 38.8 | 27.8 | > 100 | > 100 | 30.9 |  |  |  |  |  |  |  |  |  | 
8 | CCCCCCCCCCCCCCCC(=O)OCC(COP(=O)(O)OCCNC(=O)CCSSc1ccccn1)OC(=O)CCCCCCCCCCCCCCC (stereo not given) | > 100 | > 100 | > 100 | > 100 | > 100 | > 100 | > 100 | > 100 | > 100 | > 100 |  |  |  |  |  |  |  |  |  | 
9 | CC(C)(C)OC(=O)NCCCCC1NC(=O)[C@@H]2Cc3c([nH]c4ccccc34)C(c3ccccc3)N2C1=O (stereo not given in full) | 60.2 | 68.4 | > 100 | > 100 | 50.5 | > 100 | 97.8 | > 100 | > 100 | > 100 |  |  |  |  |  |  |  |  |  | 
10 | O=C(c1ccccc1)n1c2ccc(Br)cc2c2nc3ccccc3nc21 | > 100 | > 100 | > 100 | > 100 | > 100 | > 100 | > 100 | > 100 | > 100 | > 100 |  |  |  |  |  |  |  |  |  | 
11 | CCOP(=O)(OCC)/C(C#N)=C(\C)c1ccco1 | > 10 | > 10 | > 10 | > 10 | > 10 | > 10 | > 10 | > 10 | > 10 | > 10 |  |  |  |  |  |  |  |  |  | 
12 | N#Cc1c2c(c(Nc3ccc(Cl)cc3)n3c1nc1ccccc13)CCCC2 | > 100 | > 100 | > 100 | > 100 | > 100 | > 100 | > 100 | > 100 | > 100 | > 100 |  |  |  |  |  |  |  |  |  | 
13 | O=C1Cc2c(-c3ccccc3)cc(-c3ccc(Cl)cc3)nc2-c2ccccc2N1 | > 84.8 | 40.2 | > 90.2 | 7.36 | 49.4 | 17.8 | 17 | 14.8 | > 72.2 | 11.5 |  |  |  |  |  |  |  |  |  | 
14 | CNC(=O)N(C)C(=O)c1ccccc1C(=O)N(C)C(=O)NC | > 10 | > 10 | > 10 | > 10 | > 10 | > 10 | > 10 | > 10 | > 10 | > 10 |  |  |  |  |  |  |  |  |  | 
15 | CC(=O)CC(=O)N1CCOC1=O | > 10 | > 10 | > 10 | > 10 | > 10 | > 10 | > 10 | > 10 | > 10 | > 10 |  |  |  |  |  |  |  |  |  | 
16 | CCOC(=O)c1ccc(-c2cccs2)[nH]1 | > 100 | > 100 | > 100 | > 100 | > 100 | > 100 | > 100 | > 100 | > 100 | > 100 |  |  |  |  |  |  |  |  |  | 
17 | C(/Cc1ccc2c(c1)OCO2)=N\NC1=NCCCCN1 | > 100 | > 100 | > 100 | > 100 | > 100 | > 100 | 58.2 | > 100 | > 100 | > 100 |  |  |  |  |  |  |  |  |  | 
18 | CCCCCNC(=O)OC1CCn2c1nc1c2C(=O)C(C)=C(N2CC2)C1=O (stereo not given) | 43.8 | 3.08 | 2.37 | 2.81 | 3.7 | 6.2 | 1.73 | 10.4 | 2.21 | 1.05 |  |  |  |  |  |  |  |  |  | 
19 | COc1ccc(NC(=S)Nc2cccc(C)n2)cc1 | > 100 | > 100 | > 100 | > 100 | > 100 | > 100 | > 100 | > 100 | > 100 | > 100 |  |  |  |  |  |  |  |  |  | 
20 | CCOC(=O)C1(NC(=O)OC(C)(C)C)CCc2[nH]oc(=O)c2C1 (stereo not given) | > 100 | > 100 | > 100 | > 100 | > 100 | > 100 | > 100 | > 100 | > 100 | > 100 |  |  |  |  |  |  |  |  |  | 
21 | O=P1(C(O)c2ccccc2)N(Cc2ccccc2)[C@@H]2CCCC[C@H]2N1Cc1ccccc1 (stereo not given in full) | 49.1 | > 100 | > 100 | > 100 | 73.7 | > 100 | > 100 | > 100 | > 100 | > 100 |  |  |  |  |  |  |  |  |  | 
22 | Nc1c(/C=C/c2cc3cc(C4=NCCN4)ccc3o2)[nH]c2cc(C3=NCCN3)ccc12 | > 100 | > 100 | > 100 | > 100 | > 100 | > 100 | > 100 | > 100 | > 100 | > 100 |  |  |  |  |  |  |  |  |  | 
23 | Nn1c(=S)[nH]nc(/C=C/c2c(O)ccc3ccccc23)c1=O | 86.1 | 31.3 | > 100 | 51.7 | > 100 | 11 | 26.5 | 14.4 | 12.6 | 76.5 |  |  |  |  |  |  |  |  |  | 
24 | CCCCC(C)(C/C=C/[C@@H]1[C@@H](C(O)CCCCCC(=O)OC)C(=O)C[C@H]1O[Si](C)(C)C(C)(C)C)O[Si](C)(C)C (stereo not given in full) | 59.4 | > 100 | > 100 | > 100 | > 100 | > 100 | > 100 | > 100 | > 100 | > 100 |  |  |  |  |  |  |  |  |  | 
25 | COc1ccc2c(C=O)c3n(c(=O)c2c1OC)CCc1cc2c(cc1-3)OCO2 | > 100 | > 100 | > 100 | > 100 | > 100 | > 100 | > 100 | > 100 | > 100 | > 100 |  |  |  |  |  |  |  |  |  | 
26 | O=C1CSC(c2cccc(Oc3ccccc3)c2)N1c1cc(Cl)ccc1Cl (stereo not given) | 57.8 | 35.6 | > 100 | 49.1 | 36.3 | 98.2 | 31.3 | 77.4 | 23 | 43.2 |  |  |  |  |  |  |  |  |  | 
27 | FC(F)(Sc1nc2ccccc2[nH]1)c1nc2ccccc2o1 | > 100 | > 100 | > 100 | > 100 | > 100 | > 100 | > 100 | > 100 | > 100 | > 100 |  |  |  |  |  |  |  |  |  | 
